From patent publication US20240383875A1, “Benzimidazole Pyridine Derivatives” (Hoffmann-La Roche Inc., priority 2022, published 2024)

Assays:
Assay type in all cases: biochemical
SIK1 = SIK1 (Homo sapiens, UniProt P57059); test: Enzymatic activity assay SIK1, RapidFire mass spectrometry (phosphorylation of CHK-peptide); conditions: RapidFire MS, inhibition of SIK1; read-out: SIK1 RF IC50
How it was run: (§1)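 Human SIK1/2/3, 5/0.5/1.5 nM; 12.5 mM HEPES pH 7.0, 10 mM Mg acetate, 0.005% BSA. 30 min cpd pre-inc, + CHK-peptide (10 μM soln) + ATP (100 μM soln), 45 min RT. Formic acid stop; RF-MS phospho ratio; IC50.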

SIK2 = SIK2 (Homo sapiens, UniProt Q9H0K1); test: Enzymatic activity assay SIK2, RapidFire mass spectrometry (phosphorylation of CHK-peptide); conditions: RapidFire MS, inhibition of SIK2; read-out: SIK2 RF IC50
Chain of SIK2 (Q9H0K1 whole entry): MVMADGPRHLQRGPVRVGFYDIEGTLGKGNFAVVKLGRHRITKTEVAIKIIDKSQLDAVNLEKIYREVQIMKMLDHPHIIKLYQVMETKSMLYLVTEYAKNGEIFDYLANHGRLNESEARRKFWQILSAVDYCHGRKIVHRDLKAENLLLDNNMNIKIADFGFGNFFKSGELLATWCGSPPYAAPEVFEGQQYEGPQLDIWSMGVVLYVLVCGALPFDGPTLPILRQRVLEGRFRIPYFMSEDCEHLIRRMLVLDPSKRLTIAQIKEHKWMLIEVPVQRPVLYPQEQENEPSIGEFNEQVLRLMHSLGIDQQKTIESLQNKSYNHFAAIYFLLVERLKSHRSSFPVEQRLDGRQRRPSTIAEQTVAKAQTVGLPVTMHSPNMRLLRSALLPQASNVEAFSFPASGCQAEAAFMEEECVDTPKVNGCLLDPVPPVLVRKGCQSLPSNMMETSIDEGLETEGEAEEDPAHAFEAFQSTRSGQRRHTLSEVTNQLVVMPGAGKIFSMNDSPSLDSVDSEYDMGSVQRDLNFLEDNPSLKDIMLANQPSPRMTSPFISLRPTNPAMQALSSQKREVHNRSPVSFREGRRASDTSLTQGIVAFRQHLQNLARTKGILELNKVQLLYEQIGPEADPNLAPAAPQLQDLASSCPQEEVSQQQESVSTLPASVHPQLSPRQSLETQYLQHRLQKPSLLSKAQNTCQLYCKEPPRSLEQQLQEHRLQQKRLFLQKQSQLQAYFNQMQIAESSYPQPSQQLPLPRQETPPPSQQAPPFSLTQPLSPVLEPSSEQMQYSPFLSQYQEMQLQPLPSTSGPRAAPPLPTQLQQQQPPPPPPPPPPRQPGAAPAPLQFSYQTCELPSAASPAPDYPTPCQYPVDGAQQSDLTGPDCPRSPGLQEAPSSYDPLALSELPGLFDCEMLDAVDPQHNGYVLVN
How it was run: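 Read-out is the summed phospho-species fraction of CHK-peptide by RapidFire mass spectrometry, normalized between DMSO and 1 μM YKL-05-099. The reaction used 0.5 nM SIK2, 100 μM ATP and 10 μM peptide solutions in HEPES pH 7.0/10 mM magnesium acetate for 45 min at ambient temperature.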

SIK3 = SIK3 (Homo sapiens, UniProt Q9Y2K2); test: Enzymatic activity assay SIK3, RapidFire mass spectrometry (phosphorylation of CHK-peptide); conditions: RapidFire MS, inhibition of SIK3; read-out: SIK3 RF IC50
Chain of SIK3 (Q9Y2K2 whole entry): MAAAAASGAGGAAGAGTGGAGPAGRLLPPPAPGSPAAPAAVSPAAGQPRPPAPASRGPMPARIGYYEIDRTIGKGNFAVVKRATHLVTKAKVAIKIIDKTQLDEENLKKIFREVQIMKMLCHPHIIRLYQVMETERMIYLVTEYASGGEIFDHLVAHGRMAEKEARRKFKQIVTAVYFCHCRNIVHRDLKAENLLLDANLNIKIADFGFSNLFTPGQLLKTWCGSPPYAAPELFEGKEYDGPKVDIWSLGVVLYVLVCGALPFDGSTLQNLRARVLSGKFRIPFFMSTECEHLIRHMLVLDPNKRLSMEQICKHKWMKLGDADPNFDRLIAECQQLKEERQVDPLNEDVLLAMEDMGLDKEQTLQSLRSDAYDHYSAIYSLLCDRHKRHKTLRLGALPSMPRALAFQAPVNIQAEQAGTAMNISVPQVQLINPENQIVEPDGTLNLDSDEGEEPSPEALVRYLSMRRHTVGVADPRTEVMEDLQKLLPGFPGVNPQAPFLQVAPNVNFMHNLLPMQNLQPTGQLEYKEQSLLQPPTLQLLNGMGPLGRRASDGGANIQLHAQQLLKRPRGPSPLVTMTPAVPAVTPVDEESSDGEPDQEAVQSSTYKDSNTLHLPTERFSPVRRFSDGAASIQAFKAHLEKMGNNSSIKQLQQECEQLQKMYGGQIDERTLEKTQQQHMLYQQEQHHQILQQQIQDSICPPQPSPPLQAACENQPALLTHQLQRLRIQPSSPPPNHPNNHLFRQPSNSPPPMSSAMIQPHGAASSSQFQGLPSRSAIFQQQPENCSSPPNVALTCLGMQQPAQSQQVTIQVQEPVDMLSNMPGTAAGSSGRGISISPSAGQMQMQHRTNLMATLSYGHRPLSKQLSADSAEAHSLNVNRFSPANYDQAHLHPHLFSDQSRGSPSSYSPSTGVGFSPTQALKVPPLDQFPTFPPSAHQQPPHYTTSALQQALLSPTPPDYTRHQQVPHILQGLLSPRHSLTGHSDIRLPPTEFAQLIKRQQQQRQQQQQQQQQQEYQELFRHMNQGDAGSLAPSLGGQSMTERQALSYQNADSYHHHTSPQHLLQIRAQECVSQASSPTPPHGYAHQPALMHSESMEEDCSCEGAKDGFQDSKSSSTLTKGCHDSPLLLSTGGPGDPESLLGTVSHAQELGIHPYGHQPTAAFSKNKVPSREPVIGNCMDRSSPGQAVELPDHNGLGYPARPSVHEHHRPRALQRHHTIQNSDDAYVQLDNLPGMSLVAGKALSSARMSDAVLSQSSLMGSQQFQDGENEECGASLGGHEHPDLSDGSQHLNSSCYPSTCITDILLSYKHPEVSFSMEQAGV
How it was run: as §1

Chain of SIK1 (P57059 whole entry): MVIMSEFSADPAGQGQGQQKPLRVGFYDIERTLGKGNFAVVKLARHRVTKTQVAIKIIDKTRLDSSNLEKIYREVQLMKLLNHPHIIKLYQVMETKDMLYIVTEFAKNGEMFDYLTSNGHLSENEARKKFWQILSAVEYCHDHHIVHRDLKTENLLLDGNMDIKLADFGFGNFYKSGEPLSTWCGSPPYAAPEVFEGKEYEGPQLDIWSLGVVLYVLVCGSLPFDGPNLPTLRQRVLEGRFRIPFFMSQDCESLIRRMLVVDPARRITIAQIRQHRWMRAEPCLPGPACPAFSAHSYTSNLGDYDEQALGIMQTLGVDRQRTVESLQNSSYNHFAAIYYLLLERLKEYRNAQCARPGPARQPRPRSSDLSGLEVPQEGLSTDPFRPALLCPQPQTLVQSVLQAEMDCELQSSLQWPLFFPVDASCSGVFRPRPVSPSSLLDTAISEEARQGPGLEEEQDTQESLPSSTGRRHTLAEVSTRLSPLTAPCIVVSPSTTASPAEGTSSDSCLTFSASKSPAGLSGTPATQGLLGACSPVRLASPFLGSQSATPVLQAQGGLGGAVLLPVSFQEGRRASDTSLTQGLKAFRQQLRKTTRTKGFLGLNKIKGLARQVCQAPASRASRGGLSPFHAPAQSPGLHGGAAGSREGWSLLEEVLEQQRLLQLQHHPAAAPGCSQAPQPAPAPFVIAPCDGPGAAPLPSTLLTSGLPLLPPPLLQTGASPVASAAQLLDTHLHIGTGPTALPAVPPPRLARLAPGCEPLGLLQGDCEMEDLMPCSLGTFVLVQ

Compound | IC50 (SIK1) | IC50 (SIK2) | IC50 (SIK3)
1-[6-[5-[[5-(azetidin-1-yl)pyridazin-3-yl]amino]-6-fluoro-benzimidazol-1-yl]-2-[3-(difluoromethyl)-5-methyl-pyrazol-1-yl]-3-pyridyl]ethanol [Example 390] | 5890 nM | 27.2 nM | 16 nM
Cc1cc(C#N)nn1-c1nc(-n2cnc3cc(C#N)ccc32)ccc1C(C)O (stereo not drawn) [Example 263, 1-[6-(3-Cyano-5-methyl-pyrazol-1-yl)-5-(1-hydroxyethyl)-2-pyridyl]benzimidazole-5-carbonitrile] | 330 nM | 144 nM | 158 nM
Cc1ccc(Nc2ccc3c(c2)ncn3-c2ccc(C(C)O)c(-n3nc(C#N)c(C)c3C)n2)nn1 (stereo not drawn) [Example 309, 1-[3-(1-hydroxyethyl)-6-[5-[(6-methylpyridazin-3-yl)amino]benzimidazol-1-yl]-2-pyridyl]-4,5-dimethyl-pyrazole-3-carbonitrile] | 27 nM | 0.3 nM | 0.4 nM
Cc1ccc(Nc2ccc3c(c2)ncn3-c2ccc(C(C)O)c(N3CC4CC3C(F)(F)C4)n2)nn1 (stereo not drawn) [Example 324, 1-[2-(6,6-difluoro-2-azabicyclo[2.2.1]heptan-2-yl)-6-[5-[(6-methylpyridazin-3-yl)amino]benzimidazol-1-yl]-3-pyridyl]ethanol] | 577 nM | 10.5 nM | 0.8 nM
Cc1ccc(Nc2ccc3c(c2)ncn3-c2ccc(C(C)O)c(-c3cc(C#N)nn3C)n2)nn1 (stereo not drawn) [Example 255, 5-[3-(1-hydroxyethyl)-6-[5-[(6-methylpyridazin-3-yl)amino]benzimidazol-1-yl]-2-pyridyl]-1-methyl-pyrazole-3-carbonitrile] | 12800 nM | 194 nM | 30.4 nM
Cc1ccc(Nc2ccc3c(c2)ncn3-c2ccc(C(C)O)c(-c3cnn(CC(F)(F)F)c3C)n2)nn1 (stereo not drawn) [Example 240, 1-[6-[5-[(6-Methylpyridazin-3-yl)amino]benzimidazol-1-yl]-2-[5-methyl-1-(2,2,2-trifluoroethyl)pyrazol-4-yl]-3-pyridyl]ethanol; formic acid] | 43 nM | 0.3 nM | 0.2 nM
Cc1cc(C#N)nn1-c1nc(-n2cnc3cc(N4CCCC4C(=O)N(C)C)ccc32)ccc1C(C)O (stereo not drawn) [Example 312, 1-[1-[6-(3-cyano-5-methyl-pyrazol-1-yl)-5-(1-hydroxyethyl)-2-pyridyl]benzimidazol-5-yl]-N,N-dimethyl-pyrrolidine-2-carboxamide] | 250 nM | 79.6 nM | 85.6 nM
Cc1ccc(Nc2cc3ncn(-c4ccc(C(C)O)c(-n5nc(C#N)cc5C)n4)c3cc2OCCN2CCOCC2)cn1 (stereo not drawn) [Example 297, 1-[3-(1-hydroxyethyl)-6-[5-[(6-methyl-3-pyridyl)amino]-6-(2-morpholinoethoxy)benzimidazol-1-yl]-2-pyridyl]-5-methyl-pyrazole-3-carbonitrile] | 10 nM | 6.2 nM | 14.8 nM
Cc1ccc(Nc2ccc3c(c2)ncn3-c2ccc(C(C)O)c(-n3nc(C(F)F)cc3C#N)n2)nn1 (stereo not drawn) [Example 303, 5-(difluoromethyl)-2-[3-(1-hydroxyethyl)-6-[5-[(6-methylpyridazin-3-yl)amino]benzimidazol-1-yl]-2-pyridyl]pyrazole-3-carbonitrile] | 30 nM | 0.4 nM | 0.4 nM
Cc1ccc(Nc2ccc3c(c2)ncn3-c2ccc(C(C)O)c(-c3cn(CC4CC4)nc3C)n2)nn1 (stereo not drawn) [Example 266, 1-[2-[1-(Cyclopropylmethyl)-3-methyl-pyrazol-4-yl]-6-[5-[(6-methylpyridazin-3-yl)amino]benzimidazol-1-yl]-3-pyridyl]ethanol; formic acid] | 136 nM | 1 nM | 1.4 nM
Cc1ncc(Nc2ccc3c(c2)ncn3-c2ccc(C(C)O)c(-n3nc(C#N)cc3C)n2)cn1 (stereo not drawn) [Example 86, 1-[3-(1-Hydroxyethyl)-6-[5-[(2-methylpyrimidin-5-yl)amino]benzimidazol-1-yl]-2-pyridyl]-5-methyl-pyrazole-3-carbonitrile] | 62 nM | 6 nM | 1.5 nM
Cc1ccc(Nc2ccc3c(c2)ncn3-c2ccc(C(C)O)c(N3CC(C(F)F)C4(CC4)C3)n2)nn1 (stereo not drawn) [Example 325, 1-[2-[7-(difluoromethyl)-5-azaspiro[2.4]heptan-5-yl]-6-[5-[(6-methylpyridazin-3-yl)amino]benzimidazol-1-yl]-3-pyridyl]ethanol] | 1120 nM | 21.4 nM | 3.4 nM
Cc1ccc(Nc2ccc3c(c2)ncn3-c2ccc(C(C)O)c(-c3cnn(CC4CCC4)c3C)n2)nn1 (stereo not drawn) [Example 273, 1-[2-[1-(Cyclobutylmethyl)-5-methyl-pyrazol-4-yl]-6-[5-[(6-methylpyridazin-3-yl)amino]benzimidazol-1-yl]-3-pyridyl]ethanol; formic acid] | 115 nM | 1.2 nM | 1.5 nM
COc1cc2ncn(-c3ccc([C@H](C)O)c(-c4cccc(C#N)c4)n3)c2cc1OC [Example 37, (S)-3-(6-(5,6-Dimethoxy-1H-benzo[d]imidazol-1-yl)-3-(l-hydroxyethyl)pyridin-2-yl)benzonitrile] | 15 nM | 4.9 nM | 22.4 nM
COc1cc2ncn(-c3ccc(CO)c(NCCCCO)n3)c2cc1OC [Example 34, 4-((6-(5,6-Dimethoxy-1H-benzo[d]imidazol-1-yl)-3-(hydroxymethyl)pyridin-2-yl)amino)butan-1-ol] | 508 nM | 377 nM | 1680 nM
CCn1nc(C(F)(F)F)cc1-c1nc(-n2cnc3cc(Nc4ccc(C)nn4)ccc32)ccc1C(C)O (stereo not drawn) [Example 250, 1-[2-[2-Ethyl-5-(trifluoromethyl)pyrazol-3-yl]-6-[5-[(6-methylpyridazin-3-yl)amino]benzimidazol-1-yl]-3-pyridyl]ethanol] | 985 nM | 25.2 nM | 4.8 nM
CNc1ncccc1-c1nc(-n2cnc3cc(Nc4ccc(C)nn4)ccc32)ccc1C(C)O (stereo not drawn) [Example 179, 1-[2-[2-(Methylamino)-3-pyridyl]-6-[5-[(6-methylpyridazin-3-yl)amino]benzimidazol-1-yl]-3-pyridyl]ethanol; formic acid] | > 30000 nM | 414 nM | 74.3 nM
COc1cc2ncn(-c3ccc(C(C)O)c(-c4cccc(Cl)c4)n3)c2cc1OC (stereo not drawn) [Example 19, 1-(2-(3-Chlorophenyl)-6-(5,6-dimethoxy-1H-benzo[d]imidazol-1-yl)pyridin-3-yl)ethan-1-ol] | 68 nM | 26.5 nM | 116 nM
CCc1cc(-c2nc(-n3cnc4cc(Nc5ccc(C)nn5)ccc43)ccc2C(C)O)c(C)cn1 (stereo not drawn) [Example 283, 1-[2-(2-ethyl-5-methyl-4-pyridyl)-6-[5-[(6-methylpyridazin-3-yl)amino]benzimidazol-1-yl]-3-pyridyl]ethanol] | 1050 nM | 21.5 nM | 7.9 nM
Cc1cc(C(F)F)nn1-c1nc(-n2cnc3cc(Nc4cccnn4)c(F)cc32)ccc1[C@H](C)O [Example 307, (1S)-1-[2-[3-(difluoromethyl)-5-methyl-pyrazol-1-yl]-6-[6-fluoro-5-(pyridazin-3-ylamino)benzimidazol-1-yl]-3-pyridyl]ethanol] | 679 nM | 7.8 nM | 2.8 nM
